Results published in patent US12428370B2, “Haloallylamine dual amine oxidase inhibitors” (Syntara Limited, priority 2020, dated 2025).
Where a name gives a salt, the structure may show the parent alone.

What was measured:
[1] = target: T1, Recombinant human MAO-B (Homo sapiens, UniProt P27338); test: Inhibition of human recombinant MAO-B; assay type: biochemical; settings: incubation time of 2 hours, benzylamine 100 μM
T1 construct: purchased Sigma Aldrich
T1 sequence (P27338 1-520): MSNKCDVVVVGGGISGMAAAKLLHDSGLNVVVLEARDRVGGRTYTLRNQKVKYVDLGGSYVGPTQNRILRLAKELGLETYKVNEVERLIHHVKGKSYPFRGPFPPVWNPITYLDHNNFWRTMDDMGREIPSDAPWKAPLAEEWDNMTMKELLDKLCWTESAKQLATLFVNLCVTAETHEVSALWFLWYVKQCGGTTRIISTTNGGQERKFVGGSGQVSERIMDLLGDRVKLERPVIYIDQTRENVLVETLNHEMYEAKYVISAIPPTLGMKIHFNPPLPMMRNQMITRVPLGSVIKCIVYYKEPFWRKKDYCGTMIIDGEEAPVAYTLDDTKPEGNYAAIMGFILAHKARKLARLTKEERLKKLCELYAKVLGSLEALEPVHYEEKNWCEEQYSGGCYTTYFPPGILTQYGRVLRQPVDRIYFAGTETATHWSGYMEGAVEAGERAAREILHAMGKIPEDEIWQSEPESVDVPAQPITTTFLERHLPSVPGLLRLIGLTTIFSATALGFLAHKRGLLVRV
Experimental: Method to Determine the Ability of Compounds of Formula I to Inhibit Human Recombinant MAO-B
The ability of the compounds of this invention to inhibit MAO-B activities in vitro was tested. Recombinant human MAO-B (0.06 mg/mL; Sigma Aldrich) was used as source of MAO-B enzyme activities.

[2] = test system: Hooded Wistar rat model of dopaminergic neurodegeneration; test: Intranigral LPS-induced neuroinflammatory model, dopaminergic neuron counts; assay type: in vivo, Hooded Wistar male rats; settings: unilateral LPS, 2 mg/kg i.p. daily for 2 weeks, t-test p<0.05, FIG. 5
Experimental: Hooded Wistar male rats weighing between 300-400 g were obtained from Adelaide Laboratory Animal Services.
Unilateral infusions: Rats receiving a unilateral injection of 2 μL of 1.5 mg/mL solution of LPS (O55:B5, Sigma) in the substantia nigra were anaesthetized with isofluorane and positioned in a stereotaxic frame. For all rats, holes were drilled into the skull above the appropriate targeted structures according to the following coordinates: −5.3 mm posterior; ±2.0 mm lateral; −8.0 mm ventral to bregma.
Immunohistochemical procedures: two weeks after the lesion, the rats were transcardially perfused with PBS followed by PFA 4%. Brains were post-fixed in PFA 4%, and coronal sections of 30 μm containing the substantia nigra were collected and washed 3×0.01 M phosphate-buffered saline at pH 7.4. (PBS) for 10 minutes. Dopaminergic neurons were stained with anti-tyrosine hydroxylase (TH) antibody 1:10000 and visualized using nickel-enhanced 3,3′-diaminobenzidine (DAB) and counted manually.

[3] = target: T2, Rat Brain Tissue MAO-B (Rattus norvegicus, UniProt P19643); test: Rat brain tissue MAO-B activity after oral administration; assay type: in vivo, Sprague Dawley rats; settings: single oral dose 0.6 mg/kg, Sprague Dawley rat brain tissue, FIG. 3
T2 construct: Brain tissue was homogenized in ice-cold Tris buffer; from tissue; host or cells: brain of Sprague Dawley rats (mitochondrial extract)
T2 sequence (P19643 1-520): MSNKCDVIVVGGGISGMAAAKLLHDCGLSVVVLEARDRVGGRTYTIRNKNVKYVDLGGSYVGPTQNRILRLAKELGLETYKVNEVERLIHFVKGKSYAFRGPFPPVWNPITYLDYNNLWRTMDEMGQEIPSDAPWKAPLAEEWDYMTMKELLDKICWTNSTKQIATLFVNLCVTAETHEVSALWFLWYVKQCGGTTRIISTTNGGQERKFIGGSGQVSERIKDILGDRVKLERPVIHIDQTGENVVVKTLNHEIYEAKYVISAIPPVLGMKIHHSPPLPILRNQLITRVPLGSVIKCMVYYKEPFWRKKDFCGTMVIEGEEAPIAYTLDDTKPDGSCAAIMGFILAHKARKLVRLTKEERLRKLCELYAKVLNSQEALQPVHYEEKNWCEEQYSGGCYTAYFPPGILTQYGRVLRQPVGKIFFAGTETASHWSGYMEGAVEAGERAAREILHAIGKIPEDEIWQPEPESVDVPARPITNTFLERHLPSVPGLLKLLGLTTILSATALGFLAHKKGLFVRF
Experimental: Sprague Dawley rats were orally administered the compound under study and sacrificed at various time points and gonadal fat and brain tissue collected.
Brain tissue was homogenized in ice-cold Tris buffer (10 mM Tris·HCl, 0.5 mM EDTA, sucrose 250 mM, pH 7.4). Homogenate was then centrifuged at 4,000 rpm for 3 minutes at 4° C. The resultant supernatant was transferred and centrifuged again at 4,000 rpm for 3 minutes at 4° C. Process repeated one last time, this time at 10,000 rpm for 8 minutes. Supernatant discarded and the resultant pellet containing the mitochondrial extract re-suspended in 0.1 M sodium phosphate buffer solution (1:3 ratio). MAO-B activity was determined by using a specific MAO-A inhibitor (e.g. clorgyline) and a SSAO/VAP-1 inhibitor (e.g. semicarbazide) to establish the high signal. Low signal was established as for the adipose tissue assay.
Activity of the treated samples was analyzed using the fluorometric method described in EXAMPLE 9 for SSAO/VAP-1 activity and EXAMPLE 10 for MAO-B.

[4] = test system: BALB/c mice, carrageenan air pouch; test: Carrageenan air pouch model; assay type: in vivo; settings: single oral application 1 h before carrageenan, read 4 h after, vs carrageenan-treated mice, FIG. 4
Experimental: On day 0, BALB/c mice were shaved at the nape of the neck, anesthetized and 6 mL air sterile (0.2 μm, Sartorius, Cat. 16532) was injected subcutaneously using a 23G×1½ inch needle fixed to a 6 mL syringe. The injection site was sealed with flexible collodion (Macron, Cat. 4580-02). On day 3 a further 3 mL of sterile air was injected into the neck.
3% λ-carrageenan was prepared by dissolving 1.8 g λ-carrageenan (FLUKA, Cat. 22049, lot 1408463) in 60 mL hot de-ionized water. Once dissolved, the solution was cooled to room temperature and the volume made up to 60 mL with de-ionized water.
On day six, PXS-5131 in PBS (vehicle) or PBS only were administered by oral gavage to the mice. One hour after administration, mice were injected with 1 mL 3% λ-carrageenan, using a 23G×2 inch needle fitted to a 1 mL syringe, directly into the air pouch. Sham animals were administered 1 mL de-ionized water instead of λ-carrageenan solution.
Four hours after carrageenan/de-ionized water injection, the mice were anesthetized and 3 mL 10 U/mL heparinized saline was injected into the air pouch. The air pouch was gently massaged, the contents immediately removed using an 18G×1 inch needle fitted to a 5 mL syringe, and the exudate volume recorded. An aliquot of the exudate taken for total white blood cell counting; a second aliquot of the exudate was taken for differential white blood cell counts.

N#Cc1ccc(OC/C(=C/F)CN)cc1 [Compound 1, (E)-4-((2-(aminomethyl)-3-fluoroallyl)oxy) benzonitrile]
IC50 [1]: < 50 nM

NC/C(=C\F)C1Cc2ccccc2O1 (single isomer, unassigned; (-)) [PXS-5131, (−)-(E)-2-(2,3-Dihydrobenzofuran-2-Yl)-3-Fluoroprop-2-En-1-Amine Hydrochloride]
loss of dopaminergic neurons (TH-positive) in substantia nigra [2]: significant protection from loss
duration of inhibition of MAO-B enzyme activity [3]: greater than 24 hours
exudate volume in the air pouch [4]: decrease
neutrophil count in the air pouch [4]: decrease
